# Measurements taken from PMC10997755, “Discovery of a small-molecule inhibitor that traps Polθ on DNA and synergizes with PARP inhibitors” (Nature Communications, 2024).
# Read-outs that look alike come from different tables or passages of the source.
# How the values were obtained:
# Polθ-pol = molecular target: T1, Polθ-pol (Homo sapiens, UniProt O75417); test: Cy5 fluorescence Polθ-pol DNA synthesis (strand displacement) IC50 assay; type: biochemical; settings: Polθ-pol DNA synthesis, Cy5 fluorescence
# T1 construct: purified recombinant human Polθ-pol (comprising amino acid residues 1792–2590); made in house
# T1 sequence (O75417 1792-2590): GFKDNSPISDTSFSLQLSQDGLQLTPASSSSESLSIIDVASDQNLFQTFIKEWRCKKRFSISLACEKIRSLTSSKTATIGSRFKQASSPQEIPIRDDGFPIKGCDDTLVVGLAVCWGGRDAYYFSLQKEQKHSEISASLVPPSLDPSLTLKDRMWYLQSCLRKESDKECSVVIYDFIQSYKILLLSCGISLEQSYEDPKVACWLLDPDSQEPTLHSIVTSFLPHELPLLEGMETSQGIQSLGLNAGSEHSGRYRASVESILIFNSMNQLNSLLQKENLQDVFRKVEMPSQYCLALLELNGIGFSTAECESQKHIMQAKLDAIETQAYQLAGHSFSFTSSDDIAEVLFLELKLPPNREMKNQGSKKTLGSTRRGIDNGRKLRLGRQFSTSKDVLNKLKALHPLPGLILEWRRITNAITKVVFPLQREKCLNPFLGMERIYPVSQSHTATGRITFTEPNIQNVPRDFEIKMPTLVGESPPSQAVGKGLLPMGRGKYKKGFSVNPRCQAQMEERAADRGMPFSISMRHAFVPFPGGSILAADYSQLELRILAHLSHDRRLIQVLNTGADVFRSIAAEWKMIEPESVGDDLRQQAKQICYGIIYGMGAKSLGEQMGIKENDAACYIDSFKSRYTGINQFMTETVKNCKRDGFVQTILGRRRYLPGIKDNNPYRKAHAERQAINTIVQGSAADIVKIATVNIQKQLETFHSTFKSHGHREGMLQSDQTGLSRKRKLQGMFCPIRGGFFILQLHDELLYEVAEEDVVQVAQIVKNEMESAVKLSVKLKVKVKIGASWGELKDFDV
# Description: The following Cy5 fluorescence assay was used to measure the ability of compounds to inhibit Polθ-pol in vitro. The fluorescent based assay was performed as follows: 60 nM of the pre-annealed primer-template containing a 5’ Cy5 fluorophore conjugated template strand (RP486-Cy5), a downstream complementary oligo conjugated with a 3’ Iowa BlackReg Dark quencher (RP343BHQRQ) and a primer strand (RP469D) was mixed with 50 uM 2'-deoxyribonucleoside triphosphates (dNTPs), 0.1 mg/mL Bovine serum albumin (BSA), 0.01% NP-40, 10% glycerol, 1 mM dithiothreitol (DTT), 10 mM MgCl2, 25 mM TrisHCl pH 7.8 in the presence of 2.5% DMSO with or without various concentrations (7-point dilution series) of Polθ-pol small-molecule inhibitors at 37 °C in a volume of 40 μL. The reactions were initiated by the addition of 5 nM of purified recombinant human Polθ-pol (comprising amino acid residues 1792–2590). The reactions were terminated by the addition of 20 mM EDTA after 18 min, and the Cy5 fluorescence intensity was measured using a CLARIOstar (BMG Labtech) plate reader. Reactions were performed in triplicate and the % inhibition at each concentration of the respective compound of Formula I was based on the mean.
# DLD1 BRCA2 -/- cells = test: Clonogenic assay; type: cell-based; settings: for Average (colonies): DLD1 BRCA2 -/-; for IC50: DLD1 cells, label beside BRCA2-null curve, read-out: IC50 clonogenic survival; for potency in BRCA2-null cells compared with RTx-161: clonogenic survival
# Description: (§1) Cells were plated on six or twelve or twenty-four well plates. In six well plate, 1000 cells/ well of BRCA2 -/-, BRCA1 -/-, PALB2 mut and 500 cells/ well of wildtype pair was plated; In twelve well plate, 600 cells/ well of BRCA2 -/-, BRCA1 -/-, PALB2 mut and 400 cells/ well of wildtype pair was plated; In twenty-four well plate, 500 cells/ well of BRCA2 -/-, BRCA1 -/-, PALB2 mut and 300 cells/ well of wildtype pair was plated. For MEFs, 300 cells per well in six-well plate were seeded. The medium was replaced every 2 days until the colonies were ready for staining in 10–12 days. For staining: Medium was removed from plates, and cells were rinsed with PBS. Fixation was carried out with—Water: Ethanol: Acetic acid (5:4:1) for 30 min followed by staining of colonies with 0.5% crystal violet in Water: Ethanol (3:2) for 2 h at room temperature. The plates were rinsed with water and left for drying overnight at room temperature. Colonies were then counted and IC50 was calculated using results from 3 or more independent experiments. Response curves are shown as mean colony formation +/- S.E.M.
# Data are expressed as mean ± SEM from at least 3 independent experiments with triplicates for each condition unless stated otherwise. When conducting comparison between two groups, two-tailed unpaired t-test was used. Significance was assumed at p < 0.05. Asterisks in the figures indicate significance, ^∗p < 0.05, ^∗∗p < 0.01, ^∗∗∗p < 0.001. Combenefit® software version 2.021 was used to perform synergy analyses for drug combinations between RTx-161 and PARPi. GraphPad Prism 9 software was used to calculate IC50.
# DLD1 Parental cells = test: Clonogenic assay; type: cell-based; settings: DLD1 Parental
# Description: as §1
structure (smiles),measurement,setting,value
"Cc1cccc(N(C)C(=O)[C@@H]2[C@H](O)CCN2c2nc(C)cc(C(F)(F)F)c2C#N)c1 [ART558, reference compound]",IC50,Polθ-pol,11.4 nM
same,Average (colonies),"DLD1 BRCA2 -/- cells; 0.1875 uM, block 1 of sheet",21.5
same,Average (colonies),"DLD1 BRCA2 -/- cells; 0.1875 uM, block 2 of sheet",41.5
same,Average (colonies),"DLD1 BRCA2 -/- cells; 0.1875 uM, block 3 of sheet",18
same,Average (colonies),"DLD1 BRCA2 -/- cells; 0.375 uM, block 1 of sheet",24.5
same,Average (colonies),"DLD1 BRCA2 -/- cells; 0.375 uM, block 2 of sheet",37.5
same,Average (colonies),"DLD1 BRCA2 -/- cells; 0.375 uM, block 3 of sheet",18.5
same,Average (colonies),"DLD1 BRCA2 -/- cells; 0.75 uM, block 1 of sheet",10.5
same,Average (colonies),"DLD1 BRCA2 -/- cells; 0.75 uM, block 2 of sheet",31
same,Average (colonies),"DLD1 BRCA2 -/- cells; 0.75 uM, block 3 of sheet",18.5
same,Average (colonies),"DLD1 BRCA2 -/- cells; 1.5 uM, block 1 of sheet",15.5
same,Average (colonies),"DLD1 BRCA2 -/- cells; 1.5 uM, block 2 of sheet",30.5
same,Average (colonies),"DLD1 BRCA2 -/- cells; 1.5 uM, block 3 of sheet",20.5
same,Average (colonies),"DLD1 BRCA2 -/- cells; 3 uM, block 1 of sheet",14
same,Average (colonies),"DLD1 BRCA2 -/- cells; 3 uM, block 2 of sheet",22.5
same,Average (colonies),"DLD1 BRCA2 -/- cells; 3 uM, block 3 of sheet",15
same,Average (colonies),"DLD1 BRCA2 -/- cells; 6 uM, block 1 of sheet",6.5
same,Average (colonies),"DLD1 BRCA2 -/- cells; 6 uM, block 2 of sheet",28.5
same,Average (colonies),"DLD1 BRCA2 -/- cells; 6 uM, block 3 of sheet",8
same,Average (colonies),"DLD1 BRCA2 -/- cells; 12 uM, block 2 of sheet",11.5
same,Average (colonies),"DLD1 BRCA2 -/- cells; 12 uM, block 3 of sheet",6
same,IC50,"DLD1 BRCA2 -/- cells; Homo sapiens, DLD-1",~2500 nM
same,potency in BRCA2-null cells compared with RTx-161,DLD1 BRCA2 -/- cells,slightly reduced potency
same,Average (colonies),"DLD1 Parental cells; 0.1875 uM, block 1 of sheet",47.5
same,Average (colonies),"DLD1 Parental cells; 0.1875 uM, block 2 of sheet",42
same,Average (colonies),"DLD1 Parental cells; 0.1875 uM, block 3 of sheet",77
same,Average (colonies),"DLD1 Parental cells; 0.375 uM, block 1 of sheet",51
same,Average (colonies),"DLD1 Parental cells; 0.375 uM, block 2 of sheet",61
same,Average (colonies),"DLD1 Parental cells; 0.375 uM, block 3 of sheet",80
same,Average (colonies),"DLD1 Parental cells; 0.75 uM, block 1 of sheet",39.5
same,Average (colonies),"DLD1 Parental cells; 0.75 uM, block 2 of sheet",41.5
same,Average (colonies),"DLD1 Parental cells; 0.75 uM, block 3 of sheet",76.5
same,Average (colonies),"DLD1 Parental cells; 1.5 uM, block 1 of sheet",42.5
same,Average (colonies),"DLD1 Parental cells; 1.5 uM, block 2 of sheet",44.5
same,Average (colonies),"DLD1 Parental cells; 1.5 uM, block 3 of sheet",77.5
same,Average (colonies),"DLD1 Parental cells; 3 uM, block 1 of sheet",58.5
same,Average (colonies),"DLD1 Parental cells; 3 uM, block 2 of sheet",36.5
same,Average (colonies),"DLD1 Parental cells; 3 uM, block 3 of sheet",78.5
same,Average (colonies),"DLD1 Parental cells; 6 uM, block 1 of sheet",42.5
same,Average (colonies),"DLD1 Parental cells; 6 uM, block 2 of sheet",59
same,Average (colonies),"DLD1 Parental cells; 6 uM, block 3 of sheet",76.5
same,Average (colonies),"DLD1 Parental cells; 12 uM, block 2 of sheet",57.5
same,Average (colonies),"DLD1 Parental cells; 12 uM, block 3 of sheet",79
"Nc1ccc(C#CCN(C(=O)Cc2ncc(C(F)(F)F)cc2C(F)(F)F)c2ccc(F)cc2)nn1 [RP6685, reference compound]",IC50,Polθ-pol,6.9 nM
same,Average (colonies),"DLD1 BRCA2 -/- cells; 0.375 uM, block 1 of sheet",44.6667
same,Average (colonies),"DLD1 BRCA2 -/- cells; 0.375 uM, block 2 of sheet",14.6667
same,Average (colonies),"DLD1 BRCA2 -/- cells; 0.375 uM, block 3 of sheet",52
same,Average (colonies),"DLD1 BRCA2 -/- cells; 0.375 uM, block 4 of sheet",52
same,Average (colonies),"DLD1 BRCA2 -/- cells; 0.75 uM, block 1 of sheet",42.3333
same,Average (colonies),"DLD1 BRCA2 -/- cells; 0.75 uM, block 2 of sheet",10.3333
same,Average (colonies),"DLD1 BRCA2 -/- cells; 0.75 uM, block 3 of sheet",48.3333
same,Average (colonies),"DLD1 BRCA2 -/- cells; 0.75 uM, block 4 of sheet",49.6667
same,Average (colonies),"DLD1 BRCA2 -/- cells; 1.5 uM, block 1 of sheet",34
same,Average (colonies),"DLD1 BRCA2 -/- cells; 1.5 uM, block 2 of sheet",7.333
same,Average (colonies),"DLD1 BRCA2 -/- cells; 1.5 uM, block 3 of sheet",43.6667
same,Average (colonies),"DLD1 BRCA2 -/- cells; 1.5 uM, block 4 of sheet",41.6667
same,Average (colonies),"DLD1 BRCA2 -/- cells; 3 uM, block 1 of sheet",34.3333
same,Average (colonies),"DLD1 BRCA2 -/- cells; 3 uM, block 2 of sheet",4
same,Average (colonies),"DLD1 BRCA2 -/- cells; 3 uM, block 3 of sheet",33.6667
same,Average (colonies),"DLD1 BRCA2 -/- cells; 3 uM, block 4 of sheet",36.3333
same,Average (colonies),"DLD1 BRCA2 -/- cells; 6 uM, block 1 of sheet",30
same,Average (colonies),"DLD1 BRCA2 -/- cells; 6 uM, block 2 of sheet",4
same,Average (colonies),"DLD1 BRCA2 -/- cells; 6 uM, block 3 of sheet",31
same,Average (colonies),"DLD1 BRCA2 -/- cells; 6 uM, block 4 of sheet",28
same,Average (colonies),"DLD1 BRCA2 -/- cells; 12 uM, block 1 of sheet",25
same,Average (colonies),"DLD1 BRCA2 -/- cells; 12 uM, block 2 of sheet",2
same,Average (colonies),"DLD1 BRCA2 -/- cells; 12 uM, block 3 of sheet",21.3333
same,Average (colonies),"DLD1 BRCA2 -/- cells; 12 uM, block 4 of sheet",9.333
same,IC50,DLD1 BRCA2 -/- cells,~4500 nM
same,potency in BRCA2-null cells compared with RTx-161,DLD1 BRCA2 -/- cells,slightly reduced potency
same,Average (colonies),"DLD1 Parental cells; 0.375 uM, block 1 of sheet",72.6667
same,Average (colonies),"DLD1 Parental cells; 0.375 uM, block 2 of sheet",75
same,Average (colonies),"DLD1 Parental cells; 0.375 uM, block 3 of sheet",87
same,Average (colonies),"DLD1 Parental cells; 0.375 uM, block 4 of sheet",63.6667
same,Average (colonies),"DLD1 Parental cells; 0.75 uM, block 1 of sheet",55.3333
same,Average (colonies),"DLD1 Parental cells; 0.75 uM, block 2 of sheet",76
same,Average (colonies),"DLD1 Parental cells; 0.75 uM, block 3 of sheet",85.6667
same,Average (colonies),"DLD1 Parental cells; 0.75 uM, block 4 of sheet",65.6667
same,Average (colonies),"DLD1 Parental cells; 1.5 uM, block 1 of sheet",59.3333
same,Average (colonies),"DLD1 Parental cells; 1.5 uM, block 2 of sheet",75
same,Average (colonies),"DLD1 Parental cells; 1.5 uM, block 3 of sheet",80
same,Average (colonies),"DLD1 Parental cells; 1.5 uM, block 4 of sheet",63.3333
same,Average (colonies),"DLD1 Parental cells; 3 uM, block 1 of sheet",73
same,Average (colonies),"DLD1 Parental cells; 3 uM, block 2 of sheet",75.6667
same,Average (colonies),"DLD1 Parental cells; 3 uM, block 3 of sheet",85.6667
same,Average (colonies),"DLD1 Parental cells; 3 uM, block 4 of sheet",65.6667
same,Average (colonies),"DLD1 Parental cells; 6 uM, block 1 of sheet",74
same,Average (colonies),"DLD1 Parental cells; 6 uM, block 2 of sheet",74.3333
same,Average (colonies),"DLD1 Parental cells; 6 uM, block 3 of sheet",84
same,Average (colonies),"DLD1 Parental cells; 6 uM, block 4 of sheet",64
same,Average (colonies),"DLD1 Parental cells; 12 uM, block 1 of sheet",60.6667
same,Average (colonies),"DLD1 Parental cells; 12 uM, block 2 of sheet",75
same,Average (colonies),"DLD1 Parental cells; 12 uM, block 3 of sheet",81
same,Average (colonies),"DLD1 Parental cells; 12 uM, block 4 of sheet",64.3333
